Data as given in ChEMBL document CHEMBL5352388 (Eur J Med Chem, 2022).

How the values were obtained:
[1] = tested on: HeLa; assay: Antiproliferative activity against human HeLa cells assessed as inhibition of cell growth incubated for 72 hrs by CCK-8 assay; assay type: functional, cell-based
[2] = tested on: A549; assay: cells; details: Homo sapiens, A549, 72 h
Description: Antiproliferative activity against human A549 cells assessed as inhibition of cell growth incubated for 72 hrs by CCK-8 assay

[3] = tested on: NCI-H460; assay: cells; details: Homo sapiens, NCI-H460, 72 h
Description: Antiproliferative activity against human NCI-H460 cells assessed as inhibition of cell growth incubated for 72 hrs by CCK-8 assay

[4] = in vitro; details: human, THLE-2 cells
Description: Antiproliferative activity against human THLE-2 cells assessed as inhibition of cell growth incubated for 72 hrs by CCK-8 assay

[5] = tested on: MCF7; assay: cells; details: Homo sapiens, MCF7, 72 h
Description: Antiproliferative activity against human MCF7 cells assessed as inhibition of cell growth incubated for 72 hrs by CCK-8 assay

[6] = molecular target: Lysine-specific histone demethylase 1A (Homo sapiens, UniProt O60341)
Description: Inhibition of recombinant human LSD1 using fluorometric substrate by HRP based fluorimeter microplate reader assay

[7] = tested on: MGC-803; assay: cells; details: Homo sapiens, MGC-803, 72 h
Description: Antiproliferative activity against human MGC-803 cells assessed as inhibition of cell growth incubated for 72 hrs by CCK-8 assay

SMILES | IC50 [1] | IC50 [2] | IC50 [3] | IC50 at 72 h [4] | IC50 [5] | IC50 [6] | IC50 [7]
Cc1ccc(-c2cc3c(cc2-c2ccc(C#N)cc2)c(C(=O)N2CCC(N)CC2)cn3Cc2cccc(C#N)c2)cc1 | 6.6 µM | 3.4 µM | 7.7 µM | 5.8 µM | 6.7 µM | 0.161 µM | 4.6 µM
Cc1ccc(-c2cc3c(cc2-c2ccc(C#N)cc2)c(C(=O)N2CCC(N)CC2)cn3C2CC2)cc1 | – | – | – | – | – | 0.018 µM | –
Cc1ccc(-c2cc3[nH]cc(C(=O)N4CCC(N)CC4)c3cc2-c2ccc(C#N)cc2)c(F)c1 | 27 µM | 2.3 µM | 28.3 µM | 27.8 µM | 16.9 µM | 0.063 µM | 24 µM
Cc1ccc(-c2cc3[nH]cc(C(=O)N4CCC(N)CC4)c3cc2-c2ccc(C#N)cc2)cc1 | 14.2 µM | 4.2 µM | 27.6 µM | 23.9 µM | 10 µM | 0.053 µM | 9.3 µM
N#Cc1ccc(-c2cc3c(C(=O)N4CCC(N)CC4)c[nH]c3cc2-c2ccc(C(F)(F)F)cc2)cc1 | – | – | – | – | – | 0.897 µM | –
Cc1ccc(-c2cc3[nH]cc(C(=O)NC4CCCNC4)c3cc2-c2ccc(C#N)cc2)cc1 (stereo unspecified) | – | – | – | – | – | 0.4 µM | –
Cc1ccc(-c2cc3[nH]cc(C(=O)N4CCC(N)CC4)c3cc2-c2ccc(C#N)cc2)cc1C | 13.7 µM | 4.3 µM | 18.6 µM | 20.8 µM | 14.7 µM | 0.05 µM | 15.6 µM
Cc1ccc(-c2cc3c(cc2-c2ccc(C#N)cc2)c(C(=O)N2CCC(N)CC2)cn3Cc2ccc(Br)cc2)cc1 | – | – | – | – | – | 1 µM | –
Cc1ccc(-c2cc3[nH]cc(C(=O)N4CCC[C@@H](N)C4)c3cc2-c2ccc(C#N)cc2)cc1 | – | – | – | – | – | 0.339 µM | –
Cc1ccc(-c2cc3[nH]cc(C(=O)N4CCC(N)CC4)c3cc2-c2ccc(C(N)=O)cc2)cc1 | – | – | – | – | – | 22 µM | –
Cc1ccc(-c2cc3c(cc2-c2ccc(C#N)cc2)c(C(=O)N2CCC(N)CC2)cn3C)cc1 | 7.1 µM | 5.5 µM | 4.7 µM | 7.3 µM | 7.1 µM | 0.012 µM | 5.3 µM
Cc1ccc(-c2cc3[nH]cc(C(=O)NC4CCNCC4)c3cc2-c2ccc(C#N)cc2)cc1 | – | – | – | – | – | 0.335 µM | –
Cc1ccc(-c2cc3[nH]cc(C(=O)NC4CCNC4)c3cc2-c2ccc(C#N)cc2)cc1 (stereo unspecified) | – | – | – | – | – | 0.369 µM | –
Cc1ccc(-c2cc3[nH]cc(C(=O)N[C@H]4CC[C@H](N)CC4)c3cc2-c2ccc(C#N)cc2)cc1 | – | – | – | – | – | 0.65 µM | –
Cc1ccc(-c2cc3c(cc2-c2ccc(C#N)cc2)c(C(=O)N2CCC(N)CC2)cn3Cc2ccc(Cl)cc2)cc1 | – | – | – | – | – | 0.691 µM | –
Cc1cc(C)cc(-c2cc3[nH]cc(C(=O)N4CCC(N)CC4)c3cc2-c2ccc(C#N)cc2)c1 | 10 µM | 5.3 µM | 13.6 µM | 11.8 µM | 7 µM | 0.061 µM | 8.8 µM
CCn1cc(C(=O)N2CCC(N)CC2)c2cc(-c3ccc(C#N)cc3)c(-c3ccc(C)cc3)cc21 | – | – | – | – | – | 0.028 µM | –
Cc1ccc(-c2cc3[nH]cc(C(=O)N4CCC(N)CC4)c3cc2-c2ccc(O)cc2)cc1 | – | – | – | – | – | 5 µM | –
Cc1ccc(-c2cc3[nH]cc(C(=O)NCCCN)c3cc2-c2ccc(C#N)cc2)cc1 | – | – | – | – | – | 0.15 µM | –
Cc1ccc(-c2cc3[nH]cc(C(=O)N4CCC(N)CC4)c3cc2-c2ccc([N+](=O)[O-])cc2)cc1 | – | – | – | – | – | 20 µM | –
Cc1ccc(-c2cc3[nH]cc(C(=O)N4CCC(N)CC4)c3cc2-c2ccc(S(N)(=O)=O)cc2)cc1 | – | – | – | – | – | 23 µM | –
Cc1ccc(-c2cc3c(cc2-c2ccc(C#N)cc2)c(C(=O)N2CCC(N)CC2)cn3S(=O)(=O)c2ccc(C#N)cc2)cc1 | – | – | – | – | – | 0.11 µM | –

SMILES | IC50 [1] | IC50 [2] | IC50 [3] | IC50 at 72 h [4] | IC50 [5] | IC50 [6] | IC50 [7]
Cc1ccc(-c2cc3[nH]cc(C(=O)NC4CCNC4)c3cc2-c2ccc(C(N)=O)cc2)cc1 (stereo unspecified) | – | – | – | – | – | 24 µM | –
Cc1ccc(-c2cc3[nH]cc(C(=O)NCC4CCNC4)c3cc2-c2ccc(C#N)cc2)cc1 (stereo unspecified) | – | – | – | – | – | 0.208 µM | –
Cc1ccc(-c2cc3[nH]cc(C(=O)N4CCNCC4)c3cc2-c2ccc(C#N)cc2)cc1 | 15.3 µM | 2.3 µM | 22.3 µM | 19.1 µM | 12.3 µM | 0.061 µM | 9.8 µM
Cc1ccc(-c2cc3c(cc2-c2ccc(C#N)cc2)c(C(=O)N2CCC(N)CC2)cn3Cc2cccc(Br)c2)cc1 | – | – | – | – | – | 0.554 µM | –
COc1ccc(-c2cc3[nH]cc(C(=O)N4CCC(N)CC4)c3cc2-c2ccc(C#N)cc2)c(F)c1 | – | – | – | – | – | 0.208 µM | –
CC(=O)Nc1ccc(S(=O)(=O)n2cc(C(=O)N3CCC(N)CC3)c3cc(-c4ccc(C#N)cc4)c(-c4ccc(C)cc4)cc32)cc1 | – | – | – | – | – | 0.165 µM | –
Cc1ccc(-c2cc3[nH]cc(C(=O)NCCN)c3cc2-c2ccc(C#N)cc2)cc1 | – | – | – | – | – | 0.18 µM | –
Cc1ccc(-c2cc3[nH]cc(C(=O)NCC4CCNCC4)c3cc2-c2ccc(C#N)cc2)cc1 | 12.6 µM | 15.4 µM | 9.4 µM | 16.1 µM | 8.5 µM | 0.06 µM | 9.8 µM
Cc1ccc(-c2cc3[nH]cc(C(=O)N4CCC(CN)CC4)c3cc2-c2ccc(C#N)cc2)cc1 | – | – | – | – | – | 0.135 µM | –
Cc1ccc(CS(=O)(=O)n2cc(C(=O)N3CCC(N)CC3)c3cc(-c4ccc(C#N)cc4)c(-c4ccc(C)cc4)cc32)cc1 | – | – | – | – | – | 1.74 µM | –
Cc1ccc(-c2cc3[nH]cc(C(=O)N4CCC(N)CC4)c3cc2-c2ccc(C#N)c(F)c2)cc1 | 13.4 µM | 2.7 µM | 17.7 µM | 13.3 µM | 14.7 µM | 0.087 µM | 12.1 µM
Cc1ccc(-c2cc3[nH]cc(C(=O)N4CCC[C@H](N)C4)c3cc2-c2ccc(C#N)cc2)cc1 | 11.4 µM | 8.8 µM | 16.2 µM | 17.5 µM | 6.1 µM | 0.085 µM | 9 µM
N#Cc1ccc(-c2cc3c(C(=O)N4CCC(N)CC4)c[nH]c3cc2-c2ccoc2)cc1 | – | – | – | – | – | 0.969 µM | –
Cc1ccc(-c2cc3c(cc2-c2ccc(C#N)cc2)c(C(=O)N2CCC(N)CC2)cn3C(C)C)cc1 | – | – | – | – | – | 0.015 µM | –
Cc1ccc(-c2cc3c(cc2-c2ccc(C(N)=O)cc2)c(C(=O)NC2CCNCC2)cn3C)cc1 | – | – | – | – | – | 20 µM | –
Cc1ccc(Cn2cc(C(=O)N3CCC(N)CC3)c3cc(-c4ccc(C#N)cc4)c(-c4ccc(C)cc4)cc32)cc1 | – | – | – | – | – | 0.858 µM | –
Cc1ccc(-c2cc3[nH]cc(C(=O)N4CCC(N)CC4)c3cc2-c2ccc(C#N)cc2)cc1F | 16.6 µM | 3.5 µM | 29.3 µM | 29.9 µM | 10.2 µM | 0.103 µM | 15.6 µM
Cc1ccc(-c2cc3[nH]cc(C(=O)N4CCC(N)CC4)c3cc2-c2ccc(C#N)cc2C)cc1 | – | – | – | – | – | 0.6 µM | –
Cc1ccc(-c2cc3[nH]cc(C(=O)N4CCC(N)CC4)c3cc2-c2ccc(C#N)nc2)cc1 | – | – | – | – | – | 0.114 µM | –
N#Cc1ccc(-c2cc3c(C(=O)N4CCC(N)CC4)c[nH]c3cc2-c2cncnc2)cc1 | – | – | – | – | – | 0.954 µM | –
CCc1ccc(-c2cc3[nH]cc(C(=O)N4CCC(N)CC4)c3cc2-c2ccc(C#N)cc2)cc1 | 14.7 µM | 17.3 µM | 26.9 µM | 29.6 µM | 14.7 µM | 0.123 µM | 12.9 µM
Cc1ccc(-c2cc3[nH]cc(C(=O)N4CCC(N)CC4)c3cc2-c2ccc(C#N)cc2)c(C)c1 | – | – | – | – | – | 0.118 µM | –
